Assay results published in the supplement of paper PMC12137928.
Structures can show the parent of a compound that is named as a salt.

Test system: HCT116
Conditions: 72 h
Method in brief: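 HCT116 cells went into 1536-well plates at 250 per well. CellTiter-Glo luminescence was expressed relative to vehicle (0%) and positive control (-100%) and then pattern-corrected. Both IC50 and maximal efficacy were taken from four-parameter Hill fits.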

Row | IC50 cell viability (ICRF193 0 nM) | IC50 cell viability (ICRF193 200 nM) | Structure (SMILES)
1 | > 45.8 µM | > 45.8 µM | NCCNCCNCCN [Triethylenetetramine]
2 | > 45.8 µM | > 45.8 µM | OC(CCN1CCCCC1)(c1ccccc1)C1CCCCC1 (stereo not given) [Trihexyphenidyl hydrochloride]
3 | > 45.8 µM | > 45.8 µM | CC(CN(C)C)CN1c2ccccc2Sc2ccccc21 (stereo not given) [Trimeprazine tartrate]
4 | > 45.8 µM | > 45.8 µM | CN1C(=O)OC(C)(C)C1=O [Trimethadione]
5 | > 45.8 µM | > 45.8 µM | CC(CN(C)C)CN1c2ccccc2CCc2ccccc21 (stereo not given) [Trimipramine maleate]
6 | > 45.8 µM | > 45.8 µM | NS(=O)(=O)c1cc(C(=O)NN2C[C@@H]3[C@H]4CC[C@H](C4)[C@@H]3C2)ccc1Cl [Tripamide]
7 | > 45.8 µM | > 45.8 µM | CN(C)CCN(Cc1ccccc1)c1ccccn1 [Tripelennamine citrate]
8 | > 45.8 µM | > 45.8 µM | Cc1ccc(/C(=C\CN2CCCC2)c2ccccn2)cc1 [Triprolidine]
9 | > 45.8 µM | > 45.8 µM | CC(C)C[C@H](NC(=O)[C@@H](Cc1c[nH]c2ccccc12)NC(=O)[C@H](Cc1ccc(O)cc1)NC(=O)[C@H](CO)NC(=O)[C@H](Cc1c[nH]c2ccccc12)NC(=O)[C@H](Cc1c[nH]cn1)NC(=O)[C@@H]1CCC(=O)N1)C(=O)N[C@@H](CCCNC(=N)N)C(=O)N1CCC[C@H]1C(=O)NCC(N)=O [Triptorelin]
10 | > 45.8 µM | > 45.8 µM | NC(CO)(CO)CO [Tromethamine]
11 | > 45.8 µM | > 45.8 µM | CCN(Cc1ccncc1)C(=O)C(CO)c1ccccc1 (stereo not given) [Tropicamide]
12 | > 45.8 µM | > 45.8 µM | CN1[C@@H]2CC[C@H]1C[C@@H](OC(=O)c1c[nH]c3ccccc13)C2 [Tropisetron]
13 | > 45.8 µM | > 45.8 µM | Nc1ccn([C@@H]2CO[C@H](CO)O2)c(=O)n1 [Troxacitabine]

Further lines, the compound ahead of its results:

Row | Structure (SMILES) | IC50 cell viability (ICRF193 0 nM) | IC50 cell viability (ICRF193 200 nM)
14 | OCCN(CCO)CCO [Triethanolamine] | > 45.8 µM | > 45.8 µM
15 | OCCOCCOCCO [Triethylene glycol] | > 45.8 µM | > 45.8 µM
16 | C[C@]12CC[C@H]3[C@@H](CC[C@@]45O[C@@H]4C(O)=C(C#N)C[C@]35C)[C@@H]1CC[C@@H]2O [Trilostane] | > 45.8 µM | > 45.8 µM
17 | COc1ccc(CN2CCNCC2)c(OC)c1OC [Trimetazidine dihydrochloride] | > 45.8 µM | > 45.8 µM
18 | COc1cc(C(=O)NCc2ccc(OCCN(C)C)cc2)cc(OC)c1OC [Trimethobenzamide hydrochloride] | > 45.8 µM | > 45.8 µM
19 | COc1cc(Cc2cnc(N)nc2N)cc(OC)c1OC [Trimethoprim] | > 45.8 µM | > 45.8 µM
20 | COc1cc(CC2NCCc3cc(O)c(O)cc32)cc(OC)c1OC (stereo not given) [Trimethoquinol] | > 45.8 µM | > 45.8 µM
21 | Cc1cc2cc3c(C)cc(=O)oc3c(C)c2o1 [Trioxsalen] | > 45.8 µM | > 45.8 µM
22 | C[Si](C)(C)O[Si](C)(C)O[Si](C)(C)C [Trisiloxane, octamethyl-] | > 45.8 µM | > 45.8 µM
23 | Cc1c(C)c2c(c(C)c1O)CCC(C)(COc1ccc(CC3SC(=O)NC3=O)cc1)O2 (stereo not given) [Troglitazone] | > 45.8 µM | > 45.8 µM
24 | CO[C@H]1C[C@H](O[C@H]2[C@H](C)[C@@H](O[C@@H]3O[C@H](C)C[C@H](N(C)C)[C@H]3OC(C)=O)[C@@H](C)C[C@@]3(CO3)C(=O)[C@H](C)[C@@H](OC(C)=O)[C@@H](C)[C@@H](C)OC(=O)[C@@H]2C)O[C@@H](C)[C@@H]1OC(C)=O [Troleandomycin] | > 45.8 µM | > 45.8 µM
25 | O=C(O[C@H]1C[C@H]2CC[C@@H](C1)[N+]21CCCC1)C(O)(c1ccccc1)c1ccccc1 [Trospium chloride] | > 45.8 µM | > 45.8 µM
